Like-named read-outs stand apart in the source and are kept apart here.

This passage reports IC50 results from patent US20080194574A1, “Pyrazine Derivatives As Effective Compounds Against Infectious Diseases” (AXXIMA PHARMACEUTICALS AG, priority 2003, published 2008).

The assay has as its target T1, viral kinase pUL-97 (Human cytomegalovirus, UniProt P16788).
T1 construct: The pUL-97 gene was cloned into a baculovirus vector; GST (glutathione S-transferase) (N); made in house; host or cells: Sf9 insect cells, baculovirus
In words: UL97 kinase assay on Immobilon plate. It counts as biochemical. The following applies: inhibition of UL 97 kinase activity, read-out: Activity Class [A, B, C]. As for the experimental part:
UL97 Kinase-Assay on Immobilon Plate
The effect of pyrazine derivatives of this invention was tested on the activity of the viral kinase pUL-97. This kinase is derived from human cytomegalovirus (HCMV) (M. Marschall et al., Journal of General Virology, 2001, 82, 1439-1450). The pUL-97 gene was cloned into a baculovirus vector in order to produce GST (glutathione S-transferase) fusion protein. Insect cells (Sf9) were infected and GST-UL-97 purified via glutathione affinity columns according to standard procedures.
The pUL-97 kinase reaction was performed as described (M. Marschall et al., Journal of General Virology, 2001, 82, 1439-1450). Briefly, 10 μl Assay buffer (3 μM ATP, 60 μg/ml myelin basic protein (MBP) as substrate), 1.0 μCi γ-[^33P]ATP and 10 μl Basic buffer (20 mM Tris-HCl pH7.5, 0.5 mM MnCl2, 1 mM DTT (Dithiothreitol)) were given to the test tube before adding various concentrations of pyrazine derivatives. The reaction was started by adding 0.2 μl pUL-97 kinase, purified from infected Sf9-insect cells as described above. The total volume was adjusted with Basic buffer to a final volume of 30 μl. The reaction mix was incubated for 1 hr at 30° C. For negative control, 10 μl 0.1M EDTA (Ethylene Diamine tetraacetate) was added to reaction mix before addition of pUL-97 protein kinase. The reaction was stopped by addition of 10 μl 0.1 M EDTA.
Measuring Incorporation of Radioactivity:
The Immobilon plate (Millipore) was rinsed with 50 μl methanol/well. Following addition of 100 μl 0.1 M EDTA, 20 μl of each kinase reaction mix was added to one well of the Immobilon plate. Each well was washed 4× with 250 μl 0.75% phosphoric acid and 1× with 50 μl methanol. After addition of 50 μl scintillation cocktail (Roth, Germany) per well incorporation of radioactivity was measured using a Betareader (Wallac) and enzymatic activity calculated.

Setting [1] is: class by IC50 / % inhibition at 10 μM or 100 μM.
[2] abbreviates: class by IC50 / % inhibition at 10 or 100 μM.

T1 sequence (P16788 whole entry): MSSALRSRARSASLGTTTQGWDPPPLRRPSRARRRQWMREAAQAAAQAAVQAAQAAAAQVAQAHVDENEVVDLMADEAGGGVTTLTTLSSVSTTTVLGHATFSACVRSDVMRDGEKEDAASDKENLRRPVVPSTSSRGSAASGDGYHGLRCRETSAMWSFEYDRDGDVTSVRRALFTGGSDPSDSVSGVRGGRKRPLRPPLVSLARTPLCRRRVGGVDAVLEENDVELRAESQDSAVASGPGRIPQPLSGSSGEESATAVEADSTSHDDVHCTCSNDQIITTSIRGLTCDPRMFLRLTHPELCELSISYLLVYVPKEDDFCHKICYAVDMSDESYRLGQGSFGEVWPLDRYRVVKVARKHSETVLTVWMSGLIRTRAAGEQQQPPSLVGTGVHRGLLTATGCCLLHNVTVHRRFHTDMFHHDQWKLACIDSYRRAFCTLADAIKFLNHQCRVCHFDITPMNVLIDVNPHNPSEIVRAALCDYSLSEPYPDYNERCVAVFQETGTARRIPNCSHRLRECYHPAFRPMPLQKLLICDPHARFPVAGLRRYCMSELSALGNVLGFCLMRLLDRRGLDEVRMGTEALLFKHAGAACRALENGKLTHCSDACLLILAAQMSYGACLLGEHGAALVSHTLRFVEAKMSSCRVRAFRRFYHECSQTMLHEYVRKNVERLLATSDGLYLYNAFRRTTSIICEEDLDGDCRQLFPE

Turning to `Fc1ccc(N2CCN(c3cncc(-c4cc5ccccc5s4)n3)CC2)c(F)c1` [compound 272, 6′-Benzo[b]thiophen-2-yl-4-(2,4-difluoro-phenyl)-3,4,5,6-tetrahydro-2H-[1,2′]bipyrazinyl], the IC50 under setting [1] lay in the range of 1 to 10 µM.
Still for that read-out and setting: to `COc1ccc2cc(-c3cncc(N4CCN(c5ccc(C(C)=O)cc5)CC4)n3)ccc2c1` [compound 213, 1-{4-[6′-(6-Methoxy-naphthalen-2-yl)-2,3,5,6-tetrahydro-[1,2′]bipyrazinyl-4-yl]-phenyl}-ethanone] belongs 1 to 10 µM.
Turning to `NC(=O)c1ccc(-c2cnc(N)c(N3CCN(c4ccncc4)CC3)n2)cc1` [compound 74, 4-(3′-Amino-4-pyridin-4-yl-3,4,5,6-tetrahydro-2H-[1,2′]bipyrazinyl-6′-yl)-benzamide], the IC50 under setting [2] was 1 to 10 µM.
Consider `COc1ccc(N2CCN(c3cncc(-c4ccc(Oc5ccccc5)cc4)n3)CC2)cc1OC` [compound 168, 4-(3,4-Dimethoxy-phenyl)-6′-(4-phenoxy-phenyl)-3,4,5-6-tetrahydro-2H-[1,2′]bipyrazinyl], for which the IC50 under setting [2] fell in the range of 10 to 100 µM.
For the compound `CSc1ccc(-c2cncc(N3CCN(c4ccc(C(F)(F)F)cc4)CC3)n2)cc1` [compound 311, 6′-(4-Methylsulfanyl-phenyl)-4-(4-trifluoromethyl-phenyl)-3,4,5,6-tetrahydro-2H-[1,2′]bipyrazinyl], the IC50 under setting [1] was 1 to 10 µM.
On to `COc1ccc(N2CCN(c3cncc(-c4ccc(CN)cc4)n3)CC2)cc1OC` [compound 60, 4-[4-(3,4-Dimethoxy-phenyl)-3,4,5,6-tetrahydro-2H-[1,2′]bipyrazinyl-6′-yl]-benzylamine], for which the IC50 under setting [2] lay in the range of 10 to 100 µM.
`COc1ccccc1N1CCN(c2cncc(-c3ccccc3C(C)=O)n2)CC1` [compound 240, 1-{2-[4-(2-Methoxy-phenyl)-3,4,5,6-tetrahydro-2H-[1,2′]bipyrazinyl-6′-yl]-phenyl}-ethanone]: the IC50 under setting [1] fell in the range of 10 to 100 µM.
On to `Cc1ccc(-c2cncc(N3CCN(c4cccc(C(F)(F)F)c4)CC3)n2)cc1` [compound 155, 6′-p-Tolyl-4-(3-trifluoromethyl-phenyl)-3,4,5,6-tetrahydro-2H-[1,2′]bipyrazinyl], for which the IC50 under setting [2] was 10 to 100 µM.
As for `Cc1ccc(N2CCN(c3cncc(-c4ccc(F)cc4)n3)CC2)cc1` [compound 136, 6′-(4-Fluoro-phenyl)-4-p-tolyl-3,4,5,6-tetrahydro-2H-[1,2′]bipyrazinyl], the IC50 under setting [2] was in the range of 1 to 10 µM.
On to `OCc1ccc(-c2cncc(N3CCN(c4ccccc4)CC3)n2)cc1` [compound 117, [4-(4-Phenyl-3,4,5,6-tetrahydro-2H-[1,2′]bipyrazinyl-6′-yl)-phenyl]-methanol], for which, under setting [2], the IC50 is 1 to 10 µM.
Take `CC(=O)c1ccc(N2CCN(c3cncc(-c4cccc5ccccc45)n3)CC2)cc1` [compound 149, 1-[4-(6′-Naphthalen-1-yl-2,3,5,6-tetrahydro-[1,2′]bipyrazinyl-4-yl)-phenyl]-ethanone]: under setting [2], the IC50 was 10 to 100 µM.
Turning to `COc1ccccc1N1CCN(c2cncc(-c3ccc(C(N)=O)cc3)n2)CC1` [compound 104, 4-[4-(2-Methoxy-phenyl)-3,4,5,6-tetrahydro-2H-[1,2′]bipyrazinyl-6′-yl]-benzamide], the IC50 under setting [2] is less than 1 µM.
For the compound `COc1cccc(N2CCN(c3cncc(-c4ccc(CO)cc4)n3)CC2)c1` [compound 323, {4-[4-(3-Methoxy-phenyl)-3,4,5,6-tetrahydro-2H-[1,2′]bipyrazinyl-6′-yl]-phenyl}-methanol], under setting [1], the IC50 lay within 1 to 10 µM.
Take `Fc1ccc(N2CCN(c3cncc(-c4ccc(C(F)(F)F)cc4)n3)CC2)c(F)c1` [compound 210, 4-(2,4-Difluoro-phenyl)-6′-(4-trifluoromethyl-phenyl)-3,4,5,6-tetrahydro-2H-[1,2′]bipyrazinyl]: the IC50 under setting [1] was in the range of 1 to 10 µM.
With `Cc1ccc(N2CCN(c3cncc(-c4cc(C)cc(C)c4)n3)CC2)cc1` [compound 177, 6′-(3,5-Dimethyl-phenyl)-4-p-tolyl-3,4,5,6-tetrahydro-2H-[1,2′]bipyrazinyl], the IC50 under setting [2] was in the range of 10 to 100 µM.
On the same count and under the same terms, under `c1ccc(N2CCN(c3cncc(-c4ccc5ccccc5c4)n3)CC2)cc1` [compound 93, 6′-Naphthalen-2-yl-4-phenyl-3,4,5,6-tetrahydro-2H-[1,2′]bipyrazinyl] stands 1 to 10 µM.
In the case of `COc1ccc(-c2cncc(N3CCN(c4ccc(C(C)=O)cc4)CC3)n2)cc1F` [compound 206, 1-{4-[6′-(3-Fluoro-4-methoxy-phenyl)-2,3,5,6-tetrahydro-[1,2′]bipyrazinyl-4-yl]-phenyl}-ethanone], the IC50 under setting [1] was 1 to 10 µM.
As for `Cc1ccc(-c2cncc(N3CCN(c4ccc(F)cc4)CC3)n2)cc1` [compound 233, 4-(4-Fluoro-phenyl)-6′-p-tolyl-3,4,5,6-tetrahydro-2H-[1,2′]bipyrazinyl], the IC50 under setting [1] was 1 to 10 µM.
For the compound `CSc1ccc(-c2cncc(N3CCN(c4cnccn4)CC3)n2)cc1` [compound 314, 6-(4-Methylsulfanyl-phenyl)-2′,3′,5′,6′-tetrahydro-[2,1′;4′,2″]terpyrazine], the IC50 under setting [1] was in the range of 1 to 10 µM.
For `NC(=O)c1ccc(-c2cncc(N3CCN(c4cccc(Cl)c4)CC3)n2)cc1` [compound 89, 4-[4-(3-Chloro-phenyl)-3,4,5,6-tetrahydro-2H-[1,2′]bipyrazinyl-6′-yl]-benzamide], the IC50 under setting [2] was 1 to 10 µM.
With `Cc1cc(C)cc(-c2cncc(N3CCN(c4cnccn4)CC3)n2)c1` [compound 344, 6-(3,5-Dimethyl-phenyl)-2′,3′,5′,6′-tetrahydro-[2,1′;4′,2″]terpyrazine], under setting [1], the IC50 lay in the range of 10 to 100 µM.
Take `COc1ccc(N2CCN(c3cncc(-c4cc5ccccc5s4)n3)CC2)cc1` [compound 292, 6′-Benzo[b]thiophen-2-yl-4-(4-methoxy-phenyl)-3,4,5,6-tetrahydro-2H-[1,2′]bipyrazinyl]: the IC50 under setting [1] lay within 1 to 10 µM.
With `Cc1ccc(N2CCN(c3cncc(-c4ccc(CO)cc4)n3)CC2)c(C)c1` [compound 321, {4-[4-(2,4-Dimethyl-phenyl)-3,4,5,6-tetrahydro-2H-[1,2′]bipyrazinyl-6′-yl]-phenyl}-methanol], the IC50 under setting [1] lay in the range of 10 to 100 µM.
Same read-out and setting: to `CC(=O)c1cccc(-c2cncc(N3CCN(c4ccccn4)CC3)n2)c1` [compound 307, 1-[3-(4-Pyridin-2-yl-3,4,5,6-tetrahydro-2H-[1,2′]bipyrazinyl-6′-yl)-phenyl]-ethanone] belongs 1 to 10 µM.
On to `Fc1ccc(-c2cncc(N3CCN(c4ccc(Cl)c(Cl)c4)CC3)n2)cc1` [compound 370], for which, under setting [1], the IC50 is 10 to 100 µM.
On to `Clc1ccc(N2CCN(c3cncc(-c4ccc5ccccc5c4)n3)CC2)cc1` [compound 348, 4-(4-Chloro-phenyl)-6′-naphthalen-2-yl-3,4,5,6-tetrahydro-2H-[1,2′]bipyrazinyl], for which, under setting [1], the IC50 was in the range of 1 to 10 µM.
The same measure, in the same setting: to `Cc1cc(C)cc(-c2cncc(N3CCN(c4cccc(C)c4C)CC3)n2)c1` [compound 338, 4-(2,3-Dimethyl-phenyl)-6′-(3,5-dimethyl-phenyl)-3,4,5,6-tetrahydro-2H-[1,2′]bipyrazinyl] belongs 10 to 100 µM.
Take `COc1ccc(N2CCN(c3cncc(-c4ccc(C(F)(F)F)cc4)n3)CC2)cc1OC` [compound 172, 4-(3,4-Dimethoxy-phenyl)-6′-(4-trifluoromethyl-phenyl)-3,4,5,6-tetrahydro-2H-[1,2′]bipyrazinyl]: under setting [2], the IC50 lay within 1 to 10 µM.
Regarding `Cc1cc(C)cc(-c2cncc(N3CCN(c4ccc(F)cc4F)CC3)n2)c1` [compound 209, 4-(2,4-Difluoro-phenyl)-6′-(3,5-dimethyl-phenyl)-3,4,5,6-tetrahydro-2H-[1,2′]bipyrazinyl], under setting [1], the IC50 lay within 10 to 100 µM.
In the case of `CCCNc1cncc(-c2ccc(C(N)=O)cc2)n1` [compound 25, 4-(6-Propylamino-pyrazin-2-yl)-benzamide], the IC50 under setting [2] was less than 1 µM.
Same read-out and setting: under `Fc1ccc(N2CCN(c3cncc(-c4cccc5ccccc45)n3)CC2)c(F)c1` [compound 143, 4-(2,4-Dinfluoro-phenyl)-6′-naphthalen-1-yl-3,4,5,6-tetrahydro-2H-[1,2′]bipyrazinyl] stands 10 to 100 µM.
Regarding `COc1ccc(N2CCN(c3cncc(-c4ccc(C(C)(C)C)cc4)n3)CC2)cc1OC` [compound 263, 6′-(4-tert-Butyl-phenyl)-4-(3,4-dimethoxy-phenyl)-3,4,5,6-tetrahydro-2H-[1,2′]bipyrazinyl], under setting [1], the IC50 lay in the range of 10 to 100 µM.
Regarding `CC(=O)c1ccccc1-c1cncc(N2CCN(c3ccc(F)cc3F)CC2)n1` [compound 141, 1-{2-[4-(2,4-Difluoro-phenyl)-3,4,5,6-tetrahydro-2H-[1,2′]bipyrazinyl-6′-yl]-phenyl}-ethanone], the IC50 under setting [2] fell in the range of 1 to 10 µM.
In the case of `NC(=O)c1ccc(-c2cncc(N3CCN(c4ccccc4)CC3)n2)cc1` [Comp. 68, 4-(4-Phenyl-3,4,5,6-tetrahydro-2H-[1,2′]bipyrazinyl-6′-yl)-benzamide], the IC50 under setting [2] is less than 1 µM.
